The source of these data is US4959368A, “Therapeutic agent for neurological diseases” (Mitsui Petrochemical Industries Ltd., priority 1986, dated 1990).

Data set [1] has as its system mouse neuroblastoma cell line neuro-2a. In words: Activity on neuro-2a, cells with outgrown neurites. The data set is classed as cell-based. The procedure, abridged: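 Mouse neuro-2a cells in DMEM with FCS exposed to compounds for 24 h (up to 6 concentrations, triplicate runs), glutaraldehyde-fixed and methylene blue-stained. Proportion of cells bearing a neurite at least twice the cell's long diameter counted microscopically over ≥200 cells.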

Data set [2] has the same test system. In words: Activity on cell line neuro-2a (simple method). The data set is classed as cell-based. The method, then:
The biological activities in vitro of the compounds of formula (I) on cells of the nervous system were tested. The cells tested were human neuroblastoma cell line GOTO [see Sekiguchi, M., Oota, T., Sakakibara, K., Inui, N. & Fujii, G., Japan. J. Exp. Med., 49, 67-83 (1979)], and neuroblastoma cell line NB-1 [see Miyake, S., Shimo, Y., Kitamura, T., Nojyo, Y., Nakamura, T., Imkashuku, S. and Abe, T., The Autonomic Nervous System, 10, 115-120 (1973)], and mouse neuroblastoma cell line neuro-2a (Dainippon Pharmaceutical Co., Ltd.) which have been established as the cells of the nervous system. The above neuve cells were grown in an incubator at 37° C. in the presence of 5% carbon dioxide gas exponentially, and then cultivated for a certain period of time together with the compounds of formula (I). […]
(§1) As a simple method of evaluation, the number of cells have neurites with a length equal to, or larger than, the long diameter of the cell was divided by the total number of cells.

Data set [3] relates to human neuroblastoma cell line GOTO. In words: Activity on cell line GOTO (simple method). Type of data set: cell-based. To be noted: 10 μg/ml, control 8.4. As for the experimental part: The biological activities in vitro of the compounds of formula (I) on cells of the nervous system were tested. The cells tested were human neuroblastoma cell line GOTO [see Sekiguchi, M., Oota, T., Sakakibara, K., Inui, N. & Fujii, G., Japan. J. Exp. Med., 49, 67-83 (1979)], and neuroblastoma cell line NB-1 [see Miyake, S., Shimo, Y., Kitamura, T., Nojyo, Y., Nakamura, T., Imkashuku, S. and Abe, T., The Autonomic Nervous System, 10, 115-120 (1973)], and mouse neuroblastoma cell line neuro-2a (Dainippon Pharmaceutical Co., Ltd.) which have been established as the cells of the nervous system. The above neuve cells were grown in an incubator at 37° C. in the presence of 5% carbon dioxide gas exponentially, and then cultivated for a certain period of time together with the compounds of formula (I).
A culture medium [composed of 45% of RPMI 1640 medium, 45% modified Eagle's medium (MEM) and 10% of fetal calf serum (FCS) and containing penicillin G sodium (100 units/ml) and streptomycin sulfate (100 microgram/ml)] containing neurobalstoma cell line GOTO in the logarithmic growth period was poured in an amount of 2 ml each into polystyrene dishes (35 mm; made by Corning Co.) so that the cell concentration was 2 to 6×10^4 cells per dish, and the cells were cultured for 1 to 2 days in a carbon dioxide gas incubator containing 5% of carbon dioxide gas in air at 37° C. Then, the culture fluid was removed, and 2 ml of a fresh serum-free culture fluid (consisting of 50% of RPMI medium and 50% of MEM medium and containing penicillin G sodium and streptomycin sulfate in the same amounts as above) was added. At the same time, a presterilized PBS solution (phosphate buffered saline) of each of the test compounds in various concentrations was added to each of the dishes. After culturing for 24 hours, the number of living cells was counted. Furthermore, the culture was photographed, and from the photos, the number and length of neurites per cell were measured. The numer of living cells was counted for 3 to 6 dishes by resistance to staining with erythrosine dye. The number and length of the neurites were measured with regard to 6 photos (more than 200 cells per photo).
as §1

The test system is the same in data set [4]. In words: Activity on neuroblastoma cell line GOTO (cell number, number and length of neurites). The data set is classed as cell-based. The procedure, abridged: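 GOTO cells were cultured 1–2 days at 37 °C, 5% CO2, then switched to serum-free RPMI/MEM (1:1) with compounds in PBS at various concentrations for 24 h. Living cells were counted by erythrosine exclusion (3–6 dishes); neurite number and length per cell were measured from photographs.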

Data set [5] is described as follows: Acute toxicity, rat. The data set is classed as in vivo. To be noted: in vivo, po, Table 7, p.o., read-out: Presumed LD50. As for the experimental part: (§2) The acute toxicity of the compounds of the invention was examined by the following method.
(§3) Male ddy-strain 5-week old mice and male Wistar-strain 8 week old rats, five per group, were used as experimental animals. Each of the compounds was dissolved in saline and administered perorally, and the toxicity of the compound was assessed 24 hours after the administration.

In data set [6] the test system is rats. In words: Acute toxicity, rat. Type of data set: in vivo. To be noted: Table 7, 1700 mg/kg p.o., 24 hours. As for the experimental part:
as §2, §3

The subject of data set [7] is mice. The data set is described as follows: Acute toxicity, mouse. The data set is classed as in vivo. To be noted: 24 hours. As for the experimental part:
as §2, §3

Where [8] appears, read: Table 2 neuro-2a Run No. 2, 1 μg/ml, control 7.9.
The mark [9] stands for this setting: Table 1, Run No. 6 by footnote, 1 μg/ml, control 42.48 ± 19.64, all *P <0.01.
The mark [10] stands for this setting: Table 1, second control group (Run No. 6 by footnote), 1 μg/ml, control 1.79 ± 0.80.

`CC(C)Nc1ncccn1.O=P(O)(O)O` [Isaxonine, 2-isopropylaminopyrimidine ortho-phosphate, reference compound]: the “Cells having neurites with a length at least twice the long diameter of cell/total number of cells” value came out at 4.7 ± 0.4% in data set [1] (Table 3 Run No. 3, 0.03 mM, control 3.9 ± 0.3); 6.8 ± 1.2% in data set [1] (Table 3 Run No. 3, 0.1 mM, control 3.9 ± 0.3); 7.0 ± 0.8% in data set [1] (Table 3 Run No. 3, 1 mM, control 3.9 ± 0.3); 5.7 ± 1.2% in data set [1] (Table 3 Run No. 4, 1 mM, control 3.1 ± 0.2); 13.6 ± 2.3% in data set [1] (Table 3 Run No. 4, 3 mM, control 3.1 ± 0.2); 34.4 ± 0.6% in data set [1] (Table 3 Run No. 4, 10 mM, control 3.1 ± 0.2). The “Cells having neurites with a length at least twice the long diameter of cell/total number of cells” value turned out to be 29.9 ± 0.9% in data set [1] (Table 3 Run No. 6, 10 mM, control 4.4 ± 0.9); 24.9 ± 1.0% in data set [1] (Table 3 Run No. 7, 10 mM, control 2.5 ± 0.7); 28.2 ± 1.6% in data set [1] (Table 3 Run No. 8, 10 mM, control 3.7 ± 0.4); 6.8 ± 2.2% in data set [1] (Table 3 second Run No. 5, 1 mM, control 4.5 ± 0.3); 27.0 ± 3.4% in data set [1] (Table 3 second Run No. 5, 10 mM, control 4.5 ± 0.3). For the same compound, the “Average of the proportions” value in data set [2] (Table 2 neuro-2a Run No. 1, 1 μg/ml, control 7.9) worked out at 12.15%; in data set [2] (setting [8]), 12.15%; in data set [2] (Table 2 neuro-2a Run No. 3, 0.1 μg/ml, control 2.0), 9.1%; in data set [2] (Table 2 neuro-2a Run No. 3, 1 μg/ml, control 2.0), 9.1%; in data set [3] (Table 2 GOTO Run No. 1), 12.58%; in data set [3] (Table 2 GOTO Run No. 2), 12.58%. Moreover, the “Length of neurites (mean ± S.D.)” value in data set [4] (setting [9]) was 58.20 ± 25.40 μm/cell; in data set [4] (Table 1, Run No. 7 by footnote, 1 μg/ml, control 42.20 ± 17.75, all *P <0.01), 57.06 ± 28.78 μm/cell; in data set [4] (Table 1 Run No. 1, 1 μg/ml, control 70.10 ± 43.03), 87.86 ± 56.03 μm/cell; in data set [4] (Table 1 Run No. 1, 10 μg/ml, control 70.10 ± 43.03), 82.87 ± 50.70 μm/cell; in data set [4] (Table 1 Run No. 2, 1 μg/ml, control 55.00 ± 37.26), 66.01 ± 40.21 μm/cell; in data set [4] (Table 1 Run No. 3, 1 μg/ml, control 45.13 ± 22.71, all *P <0.01) it was 68.29 ± 24.83 μm/cell. The “Length of neurites (mean ± S.D.)” value in data set [4] (Table 1 Run No. 4, 1 μg/ml, control 54.15 ± 33.64) amounted to 71.25 ± 40.39 μm/cell. Moreover, the “Number of neurites/cell (mean ± S.D.)” value amounted to 1.91 ± 0.56 neurites/cell in data set [4] (Table 1, last control group (Run No. 7 by footnote), 1 μg/ml, control 1.77 ± 0.68); 2.00 ± 0.86 neurites/cell in data set [4] (setting [10]); 2.18 ± 0.77 neurites/cell in data set [4] (Table 1 Run No. 1, 1 μg/ml, control 2.09 ± 0.61); 1.99 ± 0.51 neurites/cell in data set [4] (Table 1 Run No. 1, 10 μg/ml, control 2.09 ± 0.61); 2.09 ± 0.66 neurites/cell in data set [4] (Table 1 Run No. 2, 1 μg/ml, control 2.06 ± 0.60); 2.31 ± 0.86 neurites/cell in data set [4] (Table 1 Run No. 3, 1 μg/ml, control 1.94 ± 0.69, all *P <0.01). Besides, the “Number of neurites/cell (mean ± S.D.)” value in data set [4] (Table 1 Run No. 4, 1 μg/ml, control 1.98 ± 0.74) is recorded as 1.99 ± 0.70 neurites/cell. For the same compound, the “Number of cells (mean ± S.E.)” value in data set [4] (Table 1 Run No. 1, 1 μg/ml, control 14.34 ± 0.72) was 17.63 ± 2.80 × 10^4 /dish; in data set [4] (Table 1 Run No. 1, 10 μg/ml, control 14.34 ± 0.72), 19.18 ± 0.67 × 10^4 /dish; in data set [4] (Table 1 Run No. 2, 1 μg/ml, control 12.30 ± 1.48), 14.89 ± 1.35 × 10^4 /dish; in data set [4] (Table 1 Run No. 4, 1 μg/ml, control 5.48 ± 1.38) it was 9.44 ± 1.95 × 10^4 /dish. Also, the Number of cells in data set [4] (Table 1 Run No. 3, 1 μg/ml, control 3.17) is listed as 4.72 × 10^4 /dish.
Take `CN1Cc2nc(N3CCNCC3)ncc2C1=O` [Compound 602]: the “Cells having neurites with a length at least twice the long diameter of cell/total number of cells” value was found to be 6.2 ± 0.2% in data set [1] (Table 3 Run No. 6, 0.1 mM, control 4.4 ± 0.9) and 10.0 ± 0.9% in data set [1] (Table 3 Run No. 6, 3 mM, control 4.4 ± 0.9). Besides, in data set [5], the LD50 at 24 h is > 1700 mg/kg. In addition, the “Number of dead animals/number of test animals” value in data set [6] was 0/5; in data set [7] (Table 7, 1000 mg/kg p.o.) it was 0/5; in data set [7] (Table 7, 1700 mg/kg p.o.), 0/5; in data set [7] (Table 7, 3000 mg/kg p.o.) it was 3/5.
As for `CCN1Cc2nc(N3CCNCC3)ncc2C1=O` [Compound 616], the “Cells having neurites with a length at least twice the long diameter of cell/total number of cells” value in data set [1] (Table 3 Run No. 6, 0.3 mM, control 4.4 ± 0.9) came out at 10.6 ± 1.5%; in data set [1] (Table 3 Run No. 6, 1 mM, control 4.4 ± 0.9), 10.3 ± 1.4%. In addition, the “Average of the proportions” value was determined as 15.79% in data set [2] (setting [8]) and 18.40% in data set [2] (Table 2 neuro-2a Run No. 2, 10 μg/ml, control 7.9). For the same compound, the “Length of neurites (mean ± S.D.)” value in data set [4] (setting [9]) was 56.68 ± 23.36 μm/cell; in data set [4] (Table 1, Run No. 6 by footnote, 10 μg/ml, control 42.48 ± 19.64, all *P <0.01), 57.96 ± 27.96 μm/cell. Moreover, the “Number of neurites/cell (mean ± S.D.)” value in data set [4] (Table 1, Run No. 6 by footnote, 10 μg/ml, control 1.79 ± 0.80) is 2.13 ± 0.91 neurites/cell; in data set [4] (setting [10]) it was 2.04 ± 0.91 neurites/cell. In addition, the median lethal dose (LD50) at 24 h in data set [5] is > 1700 mg/kg. Besides, the “Number of dead animals/number of test animals” value in data set [6] is listed as 0/5; in data set [7] (Table 7, 1000 mg/kg p.o.), 0/5; in data set [7] (Table 7, 1700 mg/kg p.o.), 0/5; in data set [7] (Table 7, 3000 mg/kg p.o.) it was 4/5.
